The target of the assay is human APJ receptor (Homo sapiens (Human), UniProt P35414). As to the kind of experiment: [35S]GTPγS binding assay on membranes from CHO cells stably expressing human APJ receptor. The format is biochemical. The following applies: read-out: Activity hAPJ SPA EC50 IP. The procedure: The human APJ receptor was cloned by polymerase chain reaction and the gene encoding the receptor was subcloned in pFLAG-CMV™-3 expression vector (Sigma, Saint Louis, Mo. USA) in-house at Amgen. A GTPγS binding assay was performed on membranes prepared from CHO cells stably expressing human APJ receptor. The optimum experimental conditions for the concentrations of GDP, MgCl2, and NaCl in the assay buffer were initially determined. The assay was performed in assay buffer [20 mM HEPES, pH 7.5, 5 mM MgCl2, and 0.1% (w/v) BSA with 200 mM NaCl, 3 μM GDP] and membranes expressing human APJ receptor/well along with WGA PS beads. The reaction was initiated by addition of 0.2 nM [^35S]GTPγS (Perkin Elmer Life and Analytical Sciences, Waltham USA) in the absence or presence of various ligands and incubated at RT for 90 min. Nonspecific binding was determined in the presence of 100 μM GTPγS and was always less than 0.2% of total binding. All the results presented are means of several independent experiments and analyzed by non-linear regression methods using commercially available program Prism (GraphPad, San Diego, Calif.) to obtain EC50 detailed in Table 38.
Sequence of human APJ receptor (P35414 whole entry): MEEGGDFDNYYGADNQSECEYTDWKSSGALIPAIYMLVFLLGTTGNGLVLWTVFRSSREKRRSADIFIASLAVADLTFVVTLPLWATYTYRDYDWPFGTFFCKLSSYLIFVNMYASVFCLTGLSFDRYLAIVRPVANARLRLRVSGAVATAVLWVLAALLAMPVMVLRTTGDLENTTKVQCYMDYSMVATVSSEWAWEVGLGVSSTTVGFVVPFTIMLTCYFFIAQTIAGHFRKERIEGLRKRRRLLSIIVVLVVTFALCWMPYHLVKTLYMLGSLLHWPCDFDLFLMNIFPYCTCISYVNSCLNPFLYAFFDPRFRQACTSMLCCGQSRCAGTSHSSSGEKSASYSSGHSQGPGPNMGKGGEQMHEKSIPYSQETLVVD

A word on the EC50: it is the concentration needed to bring the measured effect to its halfway point.

As for `COc1ncnc(OC)c1-n1c(NS(=O)(=O)[C@@H](C)[C@H](OC)c2ncc(Cl)cn2)nnc1[C@H]1CCCO1` (single isomer, unassigned) [Example 79.0, (1R,2S)-1-(5-chloropyrimidin-2-yl)-N-(4-(4,6-dimethoxypyrimidin-5-yl)-5-((S)-tetrahydrofuran-2-yl)-4H-1,2,4-triazol-3-yl)-1-methoxypropane-2-sulfonamide or (1R,2S)-1-(5-chloropyrimidin-2-yl)-N-(4-(4,6-dimethoxypyrimidin-5-yl)-5-((R)-tetrahydrofuran-2-yl)-4H-1,2,4-triazol-3-yl)-1-methoxypropane-2-sulfonamide], the EC50 is 110 nM.
For `COc1ncnc(OC)c1-n1c(NS(=O)(=O)[C@@H](C)[C@H](C)c2ncc(Cl)cn2)nnc1[C@H]1CCCO1` (single isomer, unassigned) [Example 81.0, (2S,3R)-3-(5-chloropyrimidin-2-yl)-N-(4-(4,6-dimethoxypyrimidin-5-yl)-5-((S)-tetrahydrofuran-2-yl)-4H-1,2,4-triazol-3-yl)butane-2-sulfonamide or (2S,3R)-3-(5-chloropyrimidin-2-yl)-N-(4-(4,6-dimethoxypyrimidin-5-yl)-5-((R)-tetrahydrofuran-2-yl)-4H-1,2,4-triazol-3-yl)butane-2-sulfonamide] the value was 82 nM.
For the compound `COc1ncnc(OC)c1-n1c(NS(=O)(=O)[C@@H](C)[C@H](C)c2ncc(Cl)cn2)nnc1[C@H]1CCCO1` (single isomer, unassigned) [Example 82.0, (2S,3R)-3-(5-chloropyrimidin-2-yl)-N-(4-(4,6-dimethoxypyrimidin-5-yl)-5-((S)-tetrahydrofuran-2-yl)-4H-1,2,4-triazol-3-yl)butane-2-sulfonamide or (2S,3R)-3-(5-chloropyrimidin-2-yl)-N-(4-(4,6-dimethoxypyrimidin-5-yl)-5-((R)-tetrahydrofuran-2-yl)-4H-1,2,4-triazol-3-yl)butane-2-sulfonamide], the EC50 came to 3 nM.
For the compound `COc1cccc(OC)c1-n1c(NS(=O)(=O)[C@@H](C)[C@H](OC)c2ncc(Cl)cn2)nnc1[C@H]1CCCCO1` (single isomer, unassigned) [Example 83.0, (1R,2S)-1-(5-chloropyrimidin-2-yl)-N-(4-(2,6-dimethoxyphenyl)-5-((S)-tetrahydro-2H-pyran-2-yl)-4H-1,2,4-triazol-3-yl)-1-methoxypropane-2-sulfonamide or (1R,2S)-1-(5-chloropyrimidin-2-yl)-N-(4-(2,6-dimethoxyphenyl)-5-((R)-tetrahydro-2H-pyran-2-yl)-4H-1,2,4-triazol-3-yl)-1-methoxypropane-2-sulfonamide], the 50% effective concentration (EC50) came to 10 nM.
The value for `COc1cccc(OC)c1-n1c(NS(=O)(=O)[C@@H](C)[C@H](OC)c2ncc(Cl)cn2)nnc1[C@H]1CCCCO1` (single isomer, unassigned) [Example 84.0, (1R,2S)-1-(5-chloropyrimidin-2-yl)-N-(4-(2,6-dimethoxyphenyl)-5-((S)-tetrahydro-2H-pyran-2-yl)-4H-1,2,4-triazol-3-yl)-1-methoxypropane-2-sulfonamide or (1R,2S)-1-(5-chloropyrimidin-2-yl)-N-(4-(2,6-dimethoxyphenyl)-5-((R)-tetrahydro-2H-pyran-2-yl)-4H-1,2,4-triazol-3-yl)-1-methoxypropane-2-sulfonamide] was 0.8 nM; that for `COc1cccc(OC)c1-n1c(NS(=O)(=O)[C@@H](C)[C@H](C)c2ncc(C)cn2)nnc1[C@H]1CCCCO1` (single isomer, unassigned) [Example 85.0, (2S,3R)-N-(4-(2,6-dimethoxyphenyl)-5-((S)-tetrahydro-2H-pyran-2-yl)-4H-1,2,4-triazol-3-yl)-3-(5-methylpyrimidin-2-yl)butane-2-sulfonamide or (2S,3R)-N-(4-(2,6-dimethoxyphenyl)-5-((R)-tetrahydro-2H-pyran-2-yl)-4H-1,2,4-triazol-3-yl)-3-(5-methylpyrimidin-2-yl)butane-2-sulfonamide] was 9.6 nM.
The value for `COc1cccc(OC)c1-n1c(NS(=O)(=O)[C@@H](C)[C@H](C)c2ncc(C)cn2)nnc1[C@H]1CCCCO1` (single isomer, unassigned) [Example 86.0, (2S,3R)-N-(4-(2,6-dimethoxyphenyl)-5-((S)-tetrahydro-2H-pyran-2-yl)-4H-1,2,4-triazol-3-yl)-3-(5-methylpyrimidin-2-yl)butane-2-sulfonamide or (2S,3R)-N-(4-(2,6-dimethoxyphenyl)-5-((R)-tetrahydro-2H-pyran-2-yl)-4H-1,2,4-triazol-3-yl)-3-(5-methylpyrimidin-2-yl)butane-2-sulfonamide] was 2.1 nM; that for `COc1cccc(OC)c1-n1c(NS(=O)(=O)[C@@H](C)[C@H](C)c2ncc(Cl)cn2)nnc1[C@H]1CCCCO1` (single isomer, unassigned) [Example 87.0, (2S,3R)-3-(5-chloropyrimidin-2-yl)-N-(4-(2,6-dimethoxyphenyl)-5-((S)-tetrahydro-2H-pyran-2-yl)-4H-1,2,4-triazol-3-yl)butane-2-sulfonamide or (2S,3R)-3-(5-chloropyrimidin-2-yl)-N-(4-(2,6-dimethoxyphenyl)-5-((S)-tetrahydro-2H-pyran-2-yl)-4H-1,2,4-triazol-3-yl)butane-2-sulfonamide] was 2.4 nM; that for `COc1cccc(OC)c1-n1c(NS(=O)(=O)[C@@H](C)[C@H](C)c2ncc(Cl)cn2)nnc1[C@H]1CCCCO1` (single isomer, unassigned) [Example 88.0, (2S,3R)-3-(5-chloropyrimidin-2-yl)-N-(4-(2,6-dimethoxyphenyl)-5-((S)-tetrahydro-2H-pyran-2-yl)-4H-1,2,4-triazol-3-yl)butane-2-sulfonamide or (2S,3R)-3-(5-chloropyrimidin-2-yl)-N-(4-(2,6-dimethoxyphenyl)-5-((S)-tetrahydro-2H-pyran-2-yl)-4H-1,2,4-triazol-3-yl)butane-2-sulfonamide] was 0.42 nM.
Regarding `COc1cccc(OC)c1-n1c(NS(=O)(=O)[C@@H](C)[C@H](C)c2cnc(C)cn2)nnc1[C@H]1CCCO1` (single isomer, unassigned) [Example 89.0, (2S,3R)-N-(4-(2,6-dimethoxyphenyl)-5-((S)-tetrahydrofuran-2-yl)-4H-1,2,4-triazol-3-yl)-3-(5-methylpyrazin-2-yl)butane-2-sulfonamide or (2S,3R)-N-(4-(2,6-dimethoxyphenyl)-5-((R)-tetrahydrofuran-2-yl)-4H-1,2,4-triazol-3-yl)-3-(5-methylpyrazin-2-yl)butane-2-sulfonamide], the EC50 worked out at 23 nM.
Consider `COc1cccc(OC)c1-n1c(NS(=O)(=O)[C@@H](C)[C@H](C)c2cnc(C)cn2)nnc1[C@H]1CCCO1` (single isomer, unassigned) [Example 90.0, (2S,3R)-N-(4-(2,6-dimethoxyphenyl)-5-((S)-tetrahydrofuran-2-yl)-4H-1,2,4-triazol-3-yl)-3-(5-methylpyrazin-2-yl)butane-2-sulfonamide or (2S,3R)-N-(4-(2,6-dimethoxyphenyl)-5-((R)-tetrahydrofuran-2-yl)-4H-1,2,4-triazol-3-yl)-3-(5-methylpyrazin-2-yl)butane-2-sulfonamide], for which the EC50 was 370 nM.
Turning to `COc1ncnc(OC)c1-n1c(NS(=O)(=O)[C@@H](C)[C@H](OC)c2ncc(Cl)cn2)nnc1C1CCCOC1` (single isomer, unassigned) [Example 91.0, (1R,2S)-1-(5-chloropyrimidin-2-yl)-N-(4-(4,6-dimethoxypyrimidin-5-yl)-5-((S)-tetrahydro-2H-pyran-3-yl)-4H-1,2,4-triazol-3-yl)-1-methoxypropane-2-sulfonamide or (1R,2S)-1-(5-chloropyrimidin-2-yl)-N-(4-(4,6-dimethoxypyrimidin-5-yl)-5-((R)-tetrahydro-2H-pyran-3-yl)-4H-1,2,4-triazol-3-yl)-1-methoxypropane-2-sulfonamide], the EC50 came to 290 nM.
As to `COc1ncnc(OC)c1-n1c(NS(=O)(=O)[C@@H](C)[C@H](OC)c2ncc(Cl)cn2)nnc1[C@H]1CCCOC1` (single isomer, unassigned) [Example 92.0, (1R,2S)-1-(5-chloropyrimidin-2-yl)-N-(4-(4,6-dimethoxypyrimidin-5-yl)-5-((S)-tetrahydro-2H-pyran-3-yl)-4H-1,2,4-triazol-3-yl)-1-methoxypropane-2-sulfonamide or (1R,2S)-1-(5-chloropyrimidin-2-yl)-N-(4-(4,6-dimethoxypyrimidin-5-yl)-5-((R)-tetrahydro-2H-pyran-3-yl)-4H-1,2,4-triazol-3-yl)-1-methoxypropane-2-sulfonamide], the EC50 stood at 42 nM.
Take `COc1ncnc(OC)c1-n1c(NS(=O)(=O)[C@@H](C)[C@H](C)c2ncc(Cl)cn2)nnc1[C@H]1CCOC1` (single isomer, unassigned) [Example 93.0, (2S,3R)-3-(5-chloropyrimidin-2-yl)-N-(4-(4,6-dimethoxypyrimidin-5-yl)-5-((R)-tetrahydrofuran-3-yl)-4H-1,2,4-triazol-3-yl)butane-2-sulfonamide or (2S,3R)-3-(5-chloropyrimidin-2-yl)-N-(4-(4,6-dimethoxypyrimidin-5-yl)-5-((S)-tetrahydrofuran-3-yl)-4H-1,2,4-triazol-3-yl)butane-2-sulfonamide]: the EC50 stood at 170 nM.

For the origin of these results see patent US10150760B2, “Compounds for use in preparing heterocyclic triazole agonists of the APJ receptor” (AMGEN INC., priority 2016, dated 2018).
